One molecule from patent publication US20130165419A1, “COMBINATION ANTI-INFLAMMATORY OPHTHALMIC COMPOSITIONS” (INSITE VISION INCORPORATED, priority 2011, published 2013) can be followed below.

The data set can be described thus: Release in the rabbit eye, measured by drug contained in the aqueous humor. The data set is classed as in vivo. The conditions noted are these: released from the gel of the ophthalmically acceptable vehicle. On the procedure: The viscous gels that result upon administration of the aqueous suspensions of this invention to the eye have residence times in the eye ranging from about 2 to about 12 hours, e.g., from about 3 to about 6 hours. The active ingredients contained in these ophthalmically acceptable vehicles are released from the gels at rates that depend on such factors as the active ingredient itself and its physical form, the extent of drug loading and the pH of the system, as well as on any drug delivery adjuvants, such as ion exchange resins compatible with the ocular surface, which can also be present.

In the case of `CC(=O)[C@@]1(O)CC[C@H]2[C@@H]3C[C@H](C)C4=CC(=O)C=C[C@]4(C)[C@@]3(F)[C@@H](O)C[C@@]21C` [fluorometholone], the “release rates in the rabbit eye, as measured by fluorometholone contained in the aqueous humor” value is on record as “in excess of four hours”.
